# Measurements from paper PMC9727733, “Liposomal Binuclear Ir(III)–Cu(II) Coordination Compounds with Phosphino-Fluoroquinolone Conjugates for Human Prostate Carcinoma Treatment” (Inorganic Chemistry, 2022).
# Assays:
# Assay type in all cases: cell-based
# [1] = tested on: DU-145 cell line (human prostate carcinoma); assay: MTT cytotoxicity assay, DU145 cells
# Procedure: (§1) The cytotoxicity of the four novel heteronuclear Ir^III–Cu^II complexes was assessed against four selected cancer cell lines: A549, MCF7, DU145, WM2664, and one normal HEK293T cell line in vitro (Table 3). IC50 values (concentration of a drug required to inhibit the growth of 50% of the cells) were assessed in two different approaches, i.e., after 24 or 24 + 48 h, using the 3-(4,5-dimethylthiazole)-2,5-diphenyltetrazolium bromide (MTT) method. Cancerous and noncancerous diseases have also been treated with the well-known drug cisplatin in the same concentration range as investigated complexes and are considered as a control. IC50 values have been determined from the plots of cell viability at various concentrations of each compound by matching appropriate dose–response curves and are presented in Table 3. […]
# (§2) Bovine Serum (FBS). DU-145 cell line (human prostate carcinoma) and HEK293T cell line (human embryonic kidney) were cultured in minimum essential medium (MEM, Corning) with only 10% fetal bovine serum (FBS). Cultures were incubated at 37 °C under a humidified atmosphere containing 5% CO2.
# (§3) Cells were passaged using a solution containing 0.05% trypsin and 0.5 mM EDTA. All media and other ingredients were purchased from ALAB, Poland.
# (§4) Since most of the studied compounds are insoluble in aqueous media, therefore they needed to be pre-dissolved in DMSO for biological tests. Cytotoxicity was assessed by MTT assay performed according to the protocols described previously. (70) In brief, 1 × 10^4 cells per well, seeded in 96-well flat-bottom microtiter plate, were incubated with the tested complexes (1, 2, 3 and 4) at various concentrations for 24 h.
# (§5) After that time, solutions of compounds were washed out, cells were washed thee time with PBS and fresh medium was applied. Each compound concentration was tested in five replicates and repeated at least three times. Determined values of IC50 (concentration of a drug required to inhibit the growth of 50% of the cells) are given as mean + S.D. (Standard Deviation). Furthermore, post-treatment survival assessment of the treated cells was analyzed under a fluorescence inverted microscope (Olympus IC51, Japan) with an excitation filter 470/20 nm. For this, cells were stained with two versatile fluorescence dyes: fluorescein […]
# (§6) diacetate (FDA, 5 mg/mL) and propidium iodide (PI, 5 mg/mL) in standard conditions in the dark for 20 min. Before visualization dyes were removed and cells were washed with PBS twice. IC50 values were determined, after 72 h, from the plots of cell viability in the presence of various concentrations of each compound by matching dose–response curves. […]
# [2] = tested on: MCF7 cell line (human breast adenocarcinoma); assay: MTT cytotoxicity assay, MCF7 cells
# Procedure: as §1
# (§7) MCF7 cell line (human breast adenocarcinoma, morphology: epithelial-like, ATCC: HTB-22), A549 cell line (human lung adenocarcinoma, morphology: epithelial, ATCC: CCL-185) and HaCaT (human keratinocyte) were cultured in Dulbecco’s Modified Eagle’s Medium (DMEM, Corning) with phenol red, supplemented with 10% fetal bovine serum (FBS) and with 1% streptomycin/penicillin. WM266-4 cell line […]
# as §2, with “(human skin (metastasis), morphology: epithelial, ATCC CRL-1676) were cultured in EMEM (EBSS) + 2mM Glutamine + 1% Non-Essential Amino Acids (NEAA) + 1% Sodium Pyruvate (NaP) + 10% Foetal Bovine” for “Bovine”
# as §3, §4, §5, §6
# [3] = tested on: HEK293T cell line (human embryonic kidney); assay: MTT cytotoxicity assay, HEK293T normal cells
# Procedure: The cytotoxicity of the four novel heteronuclear Ir^III–Cu^II complexes was assessed against four selected cancer cell lines: A549, MCF7, DU145, WM2664, and one normal HEK293T cell line in vitro (Table 3). IC50 values (concentration of a drug required to inhibit the growth of 50% of the cells) were assessed in two different approaches, i.e., after 24 or 24 + 48 h, using the 3-(4,5-dimethylthiazole)-2,5-diphenyltetrazolium bromide (MTT) method. Cancerous and noncancerous diseases have also been treated with the well-known drug cisplatin in the same concentration range as investigated complexes and are considered as a control. IC50 values have been determined from the plots of cell viability at various concentrations of each compound by matching appropriate dose–response curves and are presented in Table 3.
# as §2, with “(human skin (metastasis), morphology: epithelial, ATCC CRL-1676) were cultured in EMEM (EBSS) + 2mM Glutamine + 1% Non-Essential Amino Acids (NEAA) + 1% Sodium Pyruvate (NaP) + 10% Foetal Bovine” for “Bovine”
# as §3, §4, §5, §6
# [4] = tested on: WM2664 cells (WM266-4, human skin metastasis); assay: MTT cytotoxicity assay, WM2664 cells
# Procedure: as §1, §7
# as §2, with “(human skin (metastasis), morphology: epithelial, ATCC CRL-1676) were cultured in EMEM (EBSS) + 2mM Glutamine + 1% Non-Essential Amino Acids (NEAA) + 1% Sodium Pyruvate (NaP) + 10% Foetal Bovine” for “Bovine”
# as §3, §4, §5, §6
# [5] = tested on: A549 cell line (human lung adenocarcinoma); assay: MTT cytotoxicity assay, A549 cells; conditions: for IC50: MTT
# Procedure: as §1, §7
# as §2, with “(human skin (metastasis), morphology: epithelial, ATCC CRL-1676) were cultured in EMEM (EBSS) + 2mM Glutamine + 1% Non-Essential Amino Acids (NEAA) + 1% Sodium Pyruvate (NaP) + 10% Foetal Bovine” for “Bovine”
# as §3, §4, §5, §6
# (4) In brief, before imaging, A549 and Du145 cells were seeded on microscopic slides at a […]
# [6] = DU145, 72 h (24 + 48 h recovery)
# [7] = MCF7, 72 h (24 + 48 h recovery)
# [8] = WM2664, 72 h (24 + 48 h recovery)
# [9] = A549, 72 h (24 + 48 h recovery)
Compound,"IC50 ([1]; DU145, 24 h treatment) [µM]","IC50 [1, 6] [µM]","IC50 ([2]; MCF7, 24 h treatment) [µM]","IC50 [2, 7] [µM]",IC50 ([3]; 24 h treatment) [µM],IC50 ([3]; 72 h (24 + 48 h recovery)) [µM],"IC50 ([4]; WM2664, 24 h treatment) [µM]","IC50 [4, 8] [µM]","IC50 ([5]; A549, 24 h treatment) [µM]","IC50 [5, 9] [µM]","times more effective than the reference drug cisplatin ([5]; A549, IC50 comparison)",selectivity index (SI – IC50 (normal cell line)/IC50 (cancer cell line)) ([5]; A549 cell line)
"O=[N+]([O-])[O-].O=[N+]([O-])[O-].[Cu+2].c1cnc2c(c1)ccc1cccnc12 [Cu(phen)(NO3)2, reference compound]",412 ± 10.9,659 ± 14.5,318 ± 12.2,426 ± 9.9,81.8 ± 8.2,42.4 ± 9.1,933 ± 13.6,1110 ± 18.5,537 ± 13.2,721 ± 15.1,,
[Ir(η^5-Cp*)Cl2Pnfx-Cu(phen)](NO3)·1.75(CH3OH)·0.75(H2O) [IrPnfxCu (2)],0.00108 ± 1.9e-08,123 ± 5.4,30 ± 0.7,> 1000,756.8 ± 5.7,857 ± 15.9,0.0099 ± 3.8e-06,155 ± 3.2,0.0112 ± 7.8e-06,0.0366 ± 2.8e-06,,
[Ir(η^5-Cp*)Cl2Psfx-Cu(phen)] [IrPsfxCu (4)],0.0101 ± 2.9e-06,53.6 ± 0.4,10.5 ± 0.8,> 1000,677 ± 9.2,777 ± 15.3,0.0062 ± 2.4e-06,212 ± 10.5,0.0181 ± 1.3e-06,0.6 ± 0.00029,more than 100,approximately 1290
"N.N.[Cl][Pt][Cl] [cisplatin (CDDP), cisplatin, reference compound]",0.0683 ± 1.3e-06,65.5 ± 3.6,51.9 ± 4.6,17.7 ± 8.6,21 ± 1.8,10.3 ± 2.1,2.6 ± 0.6,8.3 ± 0.4,0.057 ± 1.3e-06,71.7 ± 3.7,,
[Ir(η^5-Cp*)Cl2Plfx-Cu(phen)](NO3)·1.3(H2O)·1.95(CH3OH) [IrPlfxCu (3)],0.0142 ± 2.4e-06,126 ± 4.4,24.2 ± 7.2,> 1000,776 ± 15.7,823 ± 12.3,0.0101 ± 2.2e-06,229 ± 25.9,0.0316 ± 7.6e-06,0.36 ± 0.00022,,
[Ir(η^5-Cp*)Cl2Pcfx-Cu(phen)](NO3)·1.75(CH3OH)·0.75(H2O) [IrPcfxCu (1)],1.28e-06,126 ± 3.4,35.3 ± 6.5,> 1000,787 ± 11.2,887 ± 12.7,0.0052 ± 4.1e-06,137 ± 2.2,0.0355 ± 5.6e-06,0.000424,,
